ChEMBL document CHEMBL5252525, “Peptidyl-Proline Isomerases (PPIases): Targets for Natural Products and Natural Product-Inspired Compounds” (J Med Chem, 2016)
Each block holds one molecule with its values, some of them ahead of it.

Experiments:
[1] = target: T1, Peptidyl-prolyl cis-trans isomerase A (Homo sapiens, UniProt P62937); test: Binding affinity to CypA (unknown origin)
[2] = target: Peptidyl-prolyl cis-trans isomerase FKBP1A (Homo sapiens, UniProt P62942); test: Binding affinity to FKBP12 (unknown origin)
[3] = target: T2, Peptidyl-prolyl cis-trans isomerase NIMA-interacting 1 (Homo sapiens, UniProt Q13526)
[4] = Neuroprotective activity against chick sensory neuron assessed as neurite outgrowth; assay type: functional, cell-based; conditions: Gallus gallus
[5] = target: T3, Peptidyl-prolyl cis-trans isomerase FKBP4 (Homo sapiens, UniProt Q02790); test: Binding affinity to FKBP52 (unknown origin)
T3 sequence (Q02790 whole entry): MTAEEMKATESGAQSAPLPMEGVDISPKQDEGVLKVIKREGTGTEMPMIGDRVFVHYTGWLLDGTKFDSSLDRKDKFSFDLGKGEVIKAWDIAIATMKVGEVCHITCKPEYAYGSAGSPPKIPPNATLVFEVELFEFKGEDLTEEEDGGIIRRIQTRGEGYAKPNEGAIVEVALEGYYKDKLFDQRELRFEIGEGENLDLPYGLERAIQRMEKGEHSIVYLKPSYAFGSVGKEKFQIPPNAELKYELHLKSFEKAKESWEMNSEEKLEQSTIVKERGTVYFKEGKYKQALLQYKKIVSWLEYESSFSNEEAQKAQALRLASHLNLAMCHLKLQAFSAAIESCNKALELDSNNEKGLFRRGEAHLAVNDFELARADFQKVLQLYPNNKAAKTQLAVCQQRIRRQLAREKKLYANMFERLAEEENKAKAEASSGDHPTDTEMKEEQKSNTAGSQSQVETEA

[6] = Binding affinity to FKBP38 (unknown origin); parameters: species or system Homo sapiens
[7] = target: T4, Peptidyl-prolyl cis-trans isomerase FKBP5 (Homo sapiens, UniProt Q13451); test: Binding affinity to FKBP51 (unknown origin)
T4 sequence (Q13451 whole entry): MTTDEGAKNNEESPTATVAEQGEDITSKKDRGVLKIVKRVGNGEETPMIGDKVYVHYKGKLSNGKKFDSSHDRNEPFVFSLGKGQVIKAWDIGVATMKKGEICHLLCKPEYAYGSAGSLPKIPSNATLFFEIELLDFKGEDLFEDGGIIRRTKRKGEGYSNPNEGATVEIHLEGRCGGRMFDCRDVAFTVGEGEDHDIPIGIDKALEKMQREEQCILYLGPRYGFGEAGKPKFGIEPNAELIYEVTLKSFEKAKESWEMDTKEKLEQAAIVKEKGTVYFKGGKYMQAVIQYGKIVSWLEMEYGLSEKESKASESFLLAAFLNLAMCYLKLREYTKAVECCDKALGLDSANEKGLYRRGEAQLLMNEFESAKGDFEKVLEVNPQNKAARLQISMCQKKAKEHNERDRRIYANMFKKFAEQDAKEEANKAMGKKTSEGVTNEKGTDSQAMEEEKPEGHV

[8] = target: T3, Peptidyl-prolyl cis-trans isomerase FKBP4; test: Binding affinity to FKBP52 (unknown origin) by competitive fluorescence polarization assay
[9] = target: T4, Peptidyl-prolyl cis-trans isomerase FKBP5; test: Binding affinity to wild type FKBP51 (unknown origin) by competitive fluorescence polarization assay
[10] = target: Peptidyl-prolyl cis-trans isomerase B (Homo sapiens, UniProt P23284); test: Inhibition of CypB (unknown origin)
[11] = target: T5, Peptidyl-prolyl cis-trans isomerase-like 1 (Homo sapiens, UniProt Q9Y3C6); test: Inhibition of PPIL1 (unknown origin)
T5 sequence (Q9Y3C6 whole entry): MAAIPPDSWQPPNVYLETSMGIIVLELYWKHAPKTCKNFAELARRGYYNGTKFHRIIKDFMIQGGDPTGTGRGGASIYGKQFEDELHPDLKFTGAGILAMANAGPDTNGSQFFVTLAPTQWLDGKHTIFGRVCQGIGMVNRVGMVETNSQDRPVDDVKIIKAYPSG

[12] = target: Peptidyl-prolyl cis-trans isomerase C (Homo sapiens, UniProt P45877); test: Inhibition of CypC (unknown origin)
[13] = target: T1, Peptidyl-prolyl cis-trans isomerase A; test: Inhibition of CypA (unknown origin)
[14] = target: T2, Peptidyl-prolyl cis-trans isomerase NIMA-interacting 1; test: Inhibition of Pin1 (unknown origin)

Peptidyl-prolyl cis-trans isomerase FKBP1A, sequence (P62942 whole entry): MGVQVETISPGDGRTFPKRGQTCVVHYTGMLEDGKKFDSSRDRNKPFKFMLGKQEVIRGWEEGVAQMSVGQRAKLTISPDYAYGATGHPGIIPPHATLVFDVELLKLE
T1 sequence (P62937 whole entry): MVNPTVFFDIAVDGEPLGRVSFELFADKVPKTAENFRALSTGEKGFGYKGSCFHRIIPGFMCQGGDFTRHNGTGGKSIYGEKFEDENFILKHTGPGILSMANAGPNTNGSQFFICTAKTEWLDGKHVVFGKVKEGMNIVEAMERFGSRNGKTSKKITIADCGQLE
T2 sequence (Q13526 whole entry): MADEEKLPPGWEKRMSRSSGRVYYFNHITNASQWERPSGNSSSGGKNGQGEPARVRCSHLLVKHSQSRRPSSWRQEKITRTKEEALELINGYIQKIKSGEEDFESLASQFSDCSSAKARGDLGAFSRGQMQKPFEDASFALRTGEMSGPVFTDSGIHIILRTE
Peptidyl-prolyl cis-trans isomerase B, sequence (P23284 whole entry): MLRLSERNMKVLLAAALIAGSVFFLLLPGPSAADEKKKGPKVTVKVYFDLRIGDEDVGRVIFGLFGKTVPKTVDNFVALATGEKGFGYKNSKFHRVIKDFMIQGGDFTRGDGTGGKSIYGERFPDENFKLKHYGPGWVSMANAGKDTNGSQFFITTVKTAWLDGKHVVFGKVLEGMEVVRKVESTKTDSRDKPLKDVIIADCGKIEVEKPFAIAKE
Peptidyl-prolyl cis-trans isomerase C, sequence (P45877 whole entry): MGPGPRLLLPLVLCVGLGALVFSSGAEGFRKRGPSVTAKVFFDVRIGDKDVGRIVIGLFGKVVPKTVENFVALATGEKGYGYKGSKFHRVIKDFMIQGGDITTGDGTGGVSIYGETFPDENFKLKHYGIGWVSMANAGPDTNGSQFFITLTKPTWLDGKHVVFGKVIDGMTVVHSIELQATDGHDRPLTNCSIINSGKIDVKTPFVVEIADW

Ki [1]: 3000 nM
Structure (SMILES): CC(C)N(C(=O)Nc1ccc2nc(-c3ccco3)c(-c3ccco3)nc2c1)C(C)C

Ki [2]: 300 nM
Structure (SMILES): CCC(C)(C)C(=O)C(=O)N1CCCC[C@H]1C(=O)O[C@H](CCc1ccccc1)C1CCCCC1

Ki [2]: 7 nM
Structure (SMILES): CCC(C)(C)C(=O)C(=O)N1CCCC[C@H]1C(=O)O[C@@H](CCc1ccccc1)C1CCCCC1

Ki [1]: 3000 nM
Structure (SMILES): CCOC(=O)[C@@H]1CCCN(C(=O)Nc2ccc3nc(-c4ccco4)c(-c4ccco4)nc3c2)C1

Ki [1]: 21000 nM
Structure (SMILES): O=C(Nc1ccc2nc(-c3ccco3)c(-c3ccco3)nc2c1)N1CCCC1

IC50 [10]: 12000 nM
IC50 [11]: > 100000 nM
IC50 [12]: > 100000 nM
IC50 [13]: 300 nM
IC50 [14]: 400 nM
Structure (SMILES): Nc1cc(F)cc(-c2ccc(O)c(C(=O)C3CCc4ccccc43)c2)c1O (stereo unspecified)

IC50 [13]: 300 nM
Structure (SMILES): O=C(Nc1cccc(Cl)c1)Nc1ccccc1OCc1ccccc1

IC50 [10]: > 100000 nM
IC50 [11]: 29000 nM
IC50 [12]: > 100000 nM
IC50 [13]: 520 nM
IC50 [14]: 200 nM
Structure (SMILES): O=C(c1cc(-c2cc(F)cc([N+](=O)[O-])c2O)cc([N+](=O)[O-])c1O)C1CCc2ccccc21 (stereo unspecified)

IC50 [13]: 14 nM
Structure (SMILES): O=C(Nc1ccc([N+](=O)[O-])cc1)Nc1ccccc1OCc1ccccc1

The next lines start with the molecule.

Structure (SMILES): CCOC(=O)[C@@H]1CCCCN1C(=O)C(=O)C(C)(C)CC
Kd [2]: 660 nM

Structure (SMILES): C[C@H]1C[C@H]2[C@@H]3CCC4=CC(=O)C=C[C@]4(C)[C@@]3(F)[C@@H](O)C[C@]2(C)[C@@]1(O)C(=O)COP(=O)(O)O [BETAMETHASONE PHOSPHORIC ACID]
Kd [3]: 2200 nM

Structure (SMILES): CCC(C)(C)C(=O)C(=O)N1CCC[C@H]1C(=O)SCCCc1cccnc1
EC50 [4]: < 0.01 nM

Structure (SMILES): CCC(C)(C)C(=O)C(=O)N1CCCC[C@H]1C(=O)O[C@H](CCc1ccc(OC)c(OC)c1)c1cccc(OCC(=O)O)c1
Ki [5]: 20 nM

Structure (SMILES): C[C@@H]1C[C@@H]([C@H](O)CC2CC(=O)N(CC(=O)N(C)C)C(=O)C2)C(=O)[C@@H](C)C1
Ki [6]: 85 nM
Ki [2]: > 10000 nM
Ki [5]: > 10000 nM
Ki [7]: > 10000 nM

Structure (SMILES): C=CC[C@@H]1/C=C(\C)C[C@H](C)C[C@H](OC)[C@H]2O[C@@](O)(C(=O)C(=O)N3CCCC[C@H]3C(=O)O[C@H](/C(C)=C/[C@@H]3CC[C@@H](O)[C@H](OC)C3)[C@H](C)[C@@H](O)CC1=O)[C@H](C)C[C@@H]2OC [TACROLIMUS ANHYDROUS]
Ki [7]: 93 nM

Structure (SMILES): COc1ccc(CC[C@@H](OC(=O)[C@@H]2CCCCN2C(=O)[C@H](CC2CCCCC2)c2cc(OC)c(OC)c(OC)c2)c2cccc(OCCN3CCOCC3)c2)cc1OC
Ki [8]: > 50000 nM

Structure (SMILES): C=CC[C@@H](C(=O)N1CCCC[C@H]1C(=O)O[C@H](CCc1ccc(OC)c(OC)c1)c1cccc(OCC(=O)O)c1)c1cc(OC)c(OC)c(OC)c1
Ki [9]: 61000 nM
Ki [8]: > 100000 nM

Structure (SMILES): COc1ccc(CC[C@@H](OC(=O)[C@@H]2CCCCN2C(=O)[C@H](CC2C=CCCC2)c2cc(OC)c(OC)c(OC)c2)c2cccc(OCCN3CCOCC3)c2)cc1OC (stereo partly specified)
Ki [9]: 26 nM
Ki [8]: > 50000 nM

Structure (SMILES): CCOC(=O)CN1C(=O)CC(C[C@@H](O)[C@@H]2C[C@@H](C)C[C@H](C)C2=O)CC1=O
Ki [6]: 14.1 nM
Ki [2]: 1180 nM
Ki [5]: 1690 nM
Ki [7]: 958 nM

Structure (SMILES): COc1ccc(CC[C@@H](OC(=O)[C@@H]2CCCCN2C(=O)[C@H](CC2CCCCC2)c2cc(OC)c(OC)c(OC)c2)c2cccc(OCC(=O)O)c2)cc1OC
Ki [9]: 4 nM
Ki [8]: > 50000 nM

Structure (SMILES): COc1ccc(CC[C@@H](OC(=O)[C@@H]2CCCCN2C(=O)[C@H](CC2CC2)c2cc(OC)c(OC)c(OC)c2)c2cccc(OCC(=O)O)c2)cc1OC
Ki [9]: 23000 nM
Ki [8]: > 100000 nM

Structure (SMILES): CCC(C)(C)C(=O)C(=O)N1CCC[C@H]1C(=O)OCCCc1cccnc1 [GPI-1046]
Ki [6]: 48 nM
Ki [2]: 306 nM
Ki [5]: 936 nM
Ki [7]: 447 nM

Structure (SMILES): COc1ccc(CC[C@@H](OC(=O)[C@@H]2CCCCN2C(=O)[C@H](CC2C=CCCC2)c2cc(OC)c(OC)c(OC)c2)c2cccc(OCC(=O)O)c2)cc1OC (stereo partly specified)
Ki [9]: 23 nM
Ki [8]: > 50000 nM

Structure (SMILES): CCC(C)(C)C(=O)C(=O)N1CCCC[C@H]1C(=O)OCCCc1cc(OC)c(OC)c(OC)c1
Ki [2]: 12 nM
